Assay results from ChEMBL document CHEMBL1909046, “DrugMatrix in vitro pharmacology data”.
pIC50, pKi: −log10 of the molar value.

Tests used:
[1] = DRUGMATRIX: Phosphodiesterase PDE3 enzyme inhibition (substrate: [3H]cAMP + cAMP); type: tissue-based, Homo sapiens; conditions: platelet; Not Active = under 50% inhibition at 10 µM
[2] = biological target: T1, C-X-C chemokine receptor type 1 (Homo sapiens, UniProt P25024); note: in other assays of this panel Not Active means under 50% inhibition at 10 µM
T1 sequence (P25024 whole entry): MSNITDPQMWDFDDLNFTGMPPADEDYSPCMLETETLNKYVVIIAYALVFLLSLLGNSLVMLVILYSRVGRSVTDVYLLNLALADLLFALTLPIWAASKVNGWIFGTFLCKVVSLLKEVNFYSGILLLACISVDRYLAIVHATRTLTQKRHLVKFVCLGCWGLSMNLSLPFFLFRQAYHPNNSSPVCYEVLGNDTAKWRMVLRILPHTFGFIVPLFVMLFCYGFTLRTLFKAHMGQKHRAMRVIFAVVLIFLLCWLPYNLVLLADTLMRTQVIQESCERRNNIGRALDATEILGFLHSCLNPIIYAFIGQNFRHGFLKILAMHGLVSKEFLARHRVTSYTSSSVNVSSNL

[3] = DRUGMATRIX: Sodium/nucleoside co-transporter radioligand binding (ligand: nitrobenzylthioinosine); type: cell membranes, Cavia porcellus, Dunkin-Hartley, Cerebral cortex, Membrane; conditions: Not Active = under 50% inhibition at 10 µM
[4] = biological target: T2, Alpha-1B adrenergic receptor (Rattus norvegicus, UniProt P15823); assay: DRUGMATRIX: Alpha-1B adrenergic receptor radioligand binding (ligand: prazosin); type: cell membranes, Wistar, Liver, Membrane; conditions: Not Active = under 50% inhibition at 10 µM
T2 sequence (P15823 whole entry): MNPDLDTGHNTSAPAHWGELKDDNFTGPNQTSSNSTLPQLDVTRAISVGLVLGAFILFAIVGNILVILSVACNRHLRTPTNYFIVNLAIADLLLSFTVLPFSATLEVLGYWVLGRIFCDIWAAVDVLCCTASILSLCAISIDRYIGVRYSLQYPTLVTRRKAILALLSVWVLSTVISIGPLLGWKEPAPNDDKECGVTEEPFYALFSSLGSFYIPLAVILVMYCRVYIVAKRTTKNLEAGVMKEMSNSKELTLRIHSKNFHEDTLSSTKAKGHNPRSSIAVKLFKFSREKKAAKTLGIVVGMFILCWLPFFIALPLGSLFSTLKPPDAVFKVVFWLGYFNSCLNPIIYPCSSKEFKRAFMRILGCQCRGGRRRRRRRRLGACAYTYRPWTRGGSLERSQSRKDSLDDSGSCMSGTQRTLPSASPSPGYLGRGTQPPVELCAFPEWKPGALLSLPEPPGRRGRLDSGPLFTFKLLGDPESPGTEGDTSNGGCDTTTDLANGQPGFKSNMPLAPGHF

[5] = biological target: Vascular endothelial growth factor receptor 1 (Homo sapiens, UniProt P17948); type: cell-based; conditions: huvec; note: in other assays of this panel Not Active means under 50% inhibition at 10 µM
Sequence of Vascular endothelial growth factor receptor 1 (P17948 whole entry): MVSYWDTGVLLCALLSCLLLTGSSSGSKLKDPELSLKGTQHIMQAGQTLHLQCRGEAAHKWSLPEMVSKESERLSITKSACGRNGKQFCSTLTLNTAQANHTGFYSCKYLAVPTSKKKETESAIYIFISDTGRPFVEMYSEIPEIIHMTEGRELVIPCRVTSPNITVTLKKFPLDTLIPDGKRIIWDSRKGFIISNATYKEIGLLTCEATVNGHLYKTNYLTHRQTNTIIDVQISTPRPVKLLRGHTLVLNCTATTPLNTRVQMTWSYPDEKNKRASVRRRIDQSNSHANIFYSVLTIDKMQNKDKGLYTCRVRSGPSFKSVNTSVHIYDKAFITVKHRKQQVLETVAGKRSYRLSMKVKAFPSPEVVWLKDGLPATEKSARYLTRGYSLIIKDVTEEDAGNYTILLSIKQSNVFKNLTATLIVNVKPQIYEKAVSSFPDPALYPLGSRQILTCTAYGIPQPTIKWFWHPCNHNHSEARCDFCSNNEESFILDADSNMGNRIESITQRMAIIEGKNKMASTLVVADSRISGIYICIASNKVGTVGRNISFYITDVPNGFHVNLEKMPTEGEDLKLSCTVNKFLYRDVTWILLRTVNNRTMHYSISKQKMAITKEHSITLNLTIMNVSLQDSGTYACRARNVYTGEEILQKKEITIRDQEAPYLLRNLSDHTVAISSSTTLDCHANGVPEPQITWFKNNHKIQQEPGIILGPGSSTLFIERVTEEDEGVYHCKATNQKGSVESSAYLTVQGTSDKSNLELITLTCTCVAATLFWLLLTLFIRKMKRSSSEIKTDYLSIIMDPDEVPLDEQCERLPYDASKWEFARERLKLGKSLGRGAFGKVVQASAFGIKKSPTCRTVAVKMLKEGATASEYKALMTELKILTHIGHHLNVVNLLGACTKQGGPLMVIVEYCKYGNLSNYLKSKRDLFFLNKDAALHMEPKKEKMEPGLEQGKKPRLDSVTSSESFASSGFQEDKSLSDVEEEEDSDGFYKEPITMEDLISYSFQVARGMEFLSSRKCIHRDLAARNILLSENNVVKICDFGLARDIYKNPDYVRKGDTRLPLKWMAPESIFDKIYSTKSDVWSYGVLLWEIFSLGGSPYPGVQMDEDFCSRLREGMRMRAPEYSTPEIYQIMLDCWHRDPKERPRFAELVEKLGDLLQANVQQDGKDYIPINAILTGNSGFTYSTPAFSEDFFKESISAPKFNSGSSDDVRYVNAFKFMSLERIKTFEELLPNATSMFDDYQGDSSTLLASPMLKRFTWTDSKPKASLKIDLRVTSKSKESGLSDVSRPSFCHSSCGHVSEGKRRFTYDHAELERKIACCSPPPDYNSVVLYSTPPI

[6] = biological target: T3, Amine oxidase [flavin-containing] A (Homo sapiens, UniProt P21397); assay: DRUGMATRIX: Monoamine Oxidase MAO-A enzyme inhibition (substrate: Kynuramine); set-up: species or system BTI-TN-5B1-4; conditions: bti-tn-5b1-4; Not Active = under 50% inhibition at 10 µM
T3 sequence (P21397 whole entry): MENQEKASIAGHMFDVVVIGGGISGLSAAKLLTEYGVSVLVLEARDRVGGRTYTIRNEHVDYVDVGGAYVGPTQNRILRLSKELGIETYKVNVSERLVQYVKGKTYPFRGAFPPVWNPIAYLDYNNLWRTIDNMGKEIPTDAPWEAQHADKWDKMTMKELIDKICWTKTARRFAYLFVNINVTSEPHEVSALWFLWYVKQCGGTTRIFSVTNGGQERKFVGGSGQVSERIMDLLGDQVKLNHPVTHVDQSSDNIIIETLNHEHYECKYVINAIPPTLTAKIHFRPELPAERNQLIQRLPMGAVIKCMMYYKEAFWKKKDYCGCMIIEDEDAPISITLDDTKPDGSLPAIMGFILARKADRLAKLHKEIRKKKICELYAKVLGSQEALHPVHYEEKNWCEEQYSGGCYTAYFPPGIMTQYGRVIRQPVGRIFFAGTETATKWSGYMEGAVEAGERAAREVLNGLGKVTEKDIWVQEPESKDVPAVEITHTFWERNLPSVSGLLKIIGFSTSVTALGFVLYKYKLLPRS

[7] = biological target: 5-hydroxytryptamine receptor 2B (Homo sapiens, UniProt P41595); type: cell membranes, CHO-K1, Membrane; note: in other assays of this panel Not Active means under 50% inhibition at 10 µM
Sequence of 5-hydroxytryptamine receptor 2B (P41595 whole entry): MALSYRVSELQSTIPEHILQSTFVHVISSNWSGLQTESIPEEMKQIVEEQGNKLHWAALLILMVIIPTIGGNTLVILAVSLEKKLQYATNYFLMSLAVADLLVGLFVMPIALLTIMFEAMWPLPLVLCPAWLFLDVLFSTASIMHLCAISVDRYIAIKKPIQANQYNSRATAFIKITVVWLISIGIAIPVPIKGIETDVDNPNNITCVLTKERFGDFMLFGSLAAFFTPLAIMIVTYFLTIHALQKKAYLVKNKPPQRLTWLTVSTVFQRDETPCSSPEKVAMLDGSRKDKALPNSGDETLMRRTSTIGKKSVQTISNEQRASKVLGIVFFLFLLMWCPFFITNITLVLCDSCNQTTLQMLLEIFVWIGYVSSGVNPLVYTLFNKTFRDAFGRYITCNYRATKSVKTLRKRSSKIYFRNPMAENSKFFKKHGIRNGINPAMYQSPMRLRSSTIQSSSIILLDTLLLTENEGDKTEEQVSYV

[8] = biological target: cGMP-specific 3',5'-cyclic phosphodiesterase (Homo sapiens, UniProt O76074); assay: DRUGMATRIX: Phosphodiesterase PDE5 enzyme inhibition (substrate: [3H]cGMP + cGMP); type: tissue-based; conditions: platelet; Not Active = under 50% inhibition at 10 µM

Compound: Cc1c(C)c2c(c(C)c1O)CC[C@@](C)(CCC[C@H](C)CCC[C@H](C)CCCC(C)C)O2 [ALPHA-TOCOPHEROL]
- IC50 [1]: Not Active
- Ki [1]: Not Active
- IC50 [2]: Not Active
- IC50 [3]: Not Active
- Ki [3]: Not Active
- IC50 [4]: Not Active
- IC50 [5]: Not Active
- IC50 [6]: Not Active
- IC50 ([7]; cho-k1): Not Active
- IC50 [8]: Not Active

Compound: O=C(O)CCCc1ccc(N(CCCl)CCCl)cc1 [CHLORAMBUCIL]
- IC50 [1]: Not Active
- Ki [1]: Not Active
- IC50 [2]: Not Active
- IC50 [3]: Not Active
- Ki [3]: Not Active
- IC50 [4]: Not Active
- IC50 [5]: Not Active
- IC50 [6]: Not Active
- IC50 ([7]; cho-k1): Not Active
- IC50 [8]: Not Active

Compound: CC[C@@]1(O)C[C@H](O[C@H]2C[C@H](N(C)C)[C@H](O[C@H]3C[C@H](O)[C@H](O[C@H]4CCC(=O)[C@H](C)O4)[C@H](C)O3)[C@H](C)O2)c2c(cc3c(c2O)C(=O)c2c(O)cccc2C3=O)[C@H]1C(=O)OC [ACLARUBICIN]
- IC50 [1]: Not Active
- Ki [1]: Not Active
- IC50 [2]: Not Active
- IC50 [3]: Not Active
- Ki [3]: Not Active
- IC50 [4]: Not Active
- IC50 [5]: Not Active
- IC50 [6]: Not Active
- pIC50 ([7]; read-out: IC50): 5.96
- pKi ([7]; read-out: Ki): 6.15
- IC50 [8]: Not Active

Compound: CC(=O)O[C@@]12CO[C@@H]1C[C@H](O)[C@@]1(C)C(=O)[C@H](O)C3=C(C)[C@@H](OC(=O)[C@H](O)[C@@H](NC(=O)OC(C)(C)C)c4ccccc4)C[C@@](O)([C@@H](OC(=O)c4ccccc4)[C@H]21)C3(C)C.O.O.O [DOCETAXEL]
- IC50 [1]: Not Active
- Ki [1]: Not Active
- IC50 [2]: Not Active
- IC50 [3]: Not Active
- Ki [3]: Not Active
- IC50 [4]: Not Active
- IC50 [5]: Not Active
- IC50 [6]: Not Active
- IC50 ([7]; cho-k1): Not Active
- IC50 [8]: Not Active

Compound: CC(C)CN(C[C@@H](O)[C@H](Cc1ccccc1)NC(=O)O[C@H]1CCOC1)S(=O)(=O)c1ccc(N)cc1
- IC50 [1]: Not Active
- Ki [1]: Not Active
- IC50 [2]: Not Active
- IC50 [3]: Not Active
- Ki [3]: Not Active
- IC50 [4]: Not Active
- IC50 [5]: Not Active
- IC50 [6]: Not Active
- IC50 ([7]; cho-k1): Not Active
- IC50 [8]: Not Active

Compound: C[C@](N)(Cc1ccc(O)c(O)c1)C(=O)O [METHYLDOPA]
- IC50 [1]: Not Active
- Ki [1]: Not Active
- IC50 [2]: Not Active
- IC50 [3]: Not Active
- Ki [3]: Not Active
- IC50 [4]: Not Active
- IC50 [5]: Not Active
- IC50 [6]: Not Active
- IC50 ([7]; cho-k1): Not Active
- IC50 [8]: Not Active

Compound: Nc1nc(N)nc(-c2cc(Cl)ccc2Cl)n1.O=C(O)/C=C\C(=O)O [IRSOGLADINE MALEATE]
- IC50 [1]: Not Active
- Ki [1]: Not Active
- IC50 [2]: Not Active
- IC50 [3]: Not Active
- Ki [3]: Not Active
- IC50 [4]: Not Active
- IC50 [5]: Not Active
- IC50 [6]: Not Active
- IC50 ([7]; cho-k1): Not Active
- IC50 [8]: Not Active

Compound: Nc1ncn([C@@H]2O[C@H](CO)[C@@H](O)[C@H]2O)c(=O)n1 [AZACITIDINE]
- IC50 [1]: Not Active
- Ki [1]: Not Active
- IC50 [2]: Not Active
- IC50 [3]: Not Active
- Ki [3]: Not Active
- IC50 [4]: Not Active
- IC50 [5]: Not Active
- IC50 [6]: Not Active
- IC50 ([7]; cho-k1): Not Active
- IC50 [8]: Not Active

Compound: LIPOPOLYSACCHARIDE E. COLI O55:B5
- IC50 [1]: Not Active
- Ki [1]: Not Active
- IC50 [2]: Not Active
- Ki [2]: Not Active
- IC50 [3]: Not Active
- Ki [3]: Not Active
- IC50 [4]: Not Active
- Ki [4]: Not Active
- IC50 [5]: Not Active
- Ki [5]: Not Active
- IC50 [6]: Not Active
- Ki [6]: Not Active
- IC50 ([7]; cho-k1): Not Active
- Ki ([7]; cho-k1): Not Active
- IC50 [8]: Not Active
- Ki [8]: Not Active

Compound: CCCCN1CCCC[C@H]1C(=O)Nc1c(C)cccc1C [LEVOBUPIVACAINE]
- IC50 [1]: Not Active
- Ki [1]: Not Active
- IC50 [2]: Not Active
- IC50 [3]: Not Active
- Ki [3]: Not Active
- IC50 [4]: Not Active
- IC50 [5]: Not Active
- IC50 [6]: Not Active
- IC50 ([7]; cho-k1): Not Active
- IC50 [8]: Not Active
